Entries after “also recorded” stand apart in the source; their conditions may differ. Where a SMILES comes first, the peptide text is derived from it. The star is where a group is joined. Cbz = O=C(OCc1ccccc1)*; CH2F = FC*
What was measured:
[1] = test system: HCT116 cells; assay: Flow cytometric cell cycle analysis, HCT116; format: cell-based, human
Procedure: Cell cycle analysis was performed via FACS analysis. HCT116 and HUVEC cells were incubated and treated as described in the figure legends. After the treatments, both floating cells in the medium aid live cells in the plate were collected. Cycle TEST PLUS DNA™ reagent kit (Beckon Dickinson; San Jose, Calif.) was used to stain cells according to manufacturer's instruction. The stained cells were analyzed in a FACS sorter (Becton Dickinson). The percentage of apoptotic cells containing a sub-G1 DNA content was quantitated using the CellQuest program. The percentage of live cells in each phase of cell cycle was quantitated using the ModFit LT program.

[2] = test system: DR5 mRNA in HCT116 cells; assay: bDNA assay of DR5 mRNA; format: cell-based, human
Procedure: The specificity of the probes was tested using RNA from in vitro transcription using recombinant DcR1, DcR2, DR4 and DR5 constructs.

[3] = test system: DR4 mRNA in HCT116 cells; assay: bDNA assay of DR4 mRNA; format: cell-based, human
Description: Total RNA was isolated using the RNA stat-60™ solution (Tel-Test, Inc (Friendsweed, Tex.) according to manufacturer's instruction. The Quantigene bDNA™ signal amplification kit (Chiron diagnostics; East Walpole, Mass.) was used to evaluate mRNA levels. The sequence of GAPDH probe sets was as recommended by the manufacturer. The DR4 probe sets were lined within the region of nucleic acid residues 9 to 582. There were 5 capture probes, 16 labeling probes and 8 blocking probes. The DR5 probe sets were lined within the region of nucleic acid residues 13-591. There were 5 capture probes, 17 labeling probes and 5 blocking probes for DR5. The specificity of the probes was tested using RNA from in vitro transcription using recombinant DcR1, DcR2, DR4 and DR5 constructs. Both DR4 and DR5 probe sets were highly specific for their own RNA transcripts. The signal from each probe sets was linear with the concentrations tested. bDNA assays were performed according to manufacturer's instructions using about 2 μg of total RNA/well.

[4] = test system: p53 protein in HUVEC cells; assay: p53 protein western blot, HUVEC; format: cell-based, human; settings: normal HUVEC cells; 2 and 24 hours; hydrochloride trihydrate
Procedure: (§1) For Western blotting, cells were lysed in 20 mM Tris-HCl, pH 7.4 containing 10% glycerol, 1% Triton-x100, 150 mM NaCl and protease inhibitors (1 mM PMSF, 10 μg/ml Aprotinin, 10 μg/ml Leupeptin, Sigma). Aliquots of 50 μg of total protein per well were separated in a NuPAGE 4-12% Bis-Tris gel with NuPAGE MES SDS running buffer (Novex; San Diego, Calif.). The gels were transferred to […] pure nitrocellulose membrane (Bio-Rad) by semi-dry transfer cell (Bio-dad; Hercules, Calif.) with NuPAGE transfer buffer. The membranes were blocked with PBS containing 5% nonfat dry milk and incubated with primary antibodies against the proteins of interest followed by a horseradish […] secondary antibody (Amersham; Braunschweig, Germany). Immunoreactivo bands were visualized by the enhanced chemiluminescencesystem (Amersham; Braunschweig, Germany). The antibodies used in this study were: Anti-caspase-3 (Stratagene, #200021; La Jolla, Calif.), anti-p53 and anti-p21 (Oncogene, #0P43 and #0P64; Cambridge, Mass.), and anti-FLIP (#343002, Calbiochem, San Diego, Calif.). The antibodies were used at the concentrations recommended by the manufacturers.

[5] = test system: HCT116 colon cancer cells; assay: AlamarBlue cell viability assay; format: cell-based, human; settings: 24 hours; CPT-11 50 μg/ml, Apo2L/TRAIL 1 μg/ml
Procedure: (§2) An AlamarBlue™ assay was used to determine the cell viability. HCT116 colon cancer cells (˜10000 cells/well) were incubated overnight in 10% FBS RPMI 1640 medium in 96-well tissue culture plates. […] AlamarBlue™ was added to the wells for the last 6 hours of the 24 hours incubation time. Fluorescence was read using 96-well fluorometer plate reader with an excitation of 530 nm and emission of 590 nm (CytoFluor multi-well plate reader series 4000, PerSeptive Biosystems; Framingham, Mass.). In addition, the Molecular probes Live/Dead^R viability/cytotoxicity kit (Eugene, Oreg.) was used to evaluate the presence of live or dead cells. In these assays, Calcein-Am (4 μM) and ethidium homodimer-1 (2 μM) were added to treated cells 15 minutes before inspecting the cultures under an Axiovert 25 (Zeiss; Thornwood, N.Y.) fluorescence microscope equipped with fluorescein (calcein) and rhodamine (ethidium homodimer-1) filters.

[6] = test system: COLO205 colon carcinoma cells; assay: COLO205 colon carcinoma tumor growth in athymic nude mice (Example 1)
Procedure: The colon carcinoma cell line COLO205 (available from NCI) were grown and maintained according to the supplier's methods. Briefly, COLO205 cells were cultured in high glucose DMEM/F12 (50:50) media containing 10% fetal bovine serum and 2.0 mM L-Glutamine. […] CPT-11 (Camptosar®) was obtained from Pharmacia & Upjohn.

[7] = test system: p53 protein in HCT116 cells; assay: p53 protein western blot, HCT116; format: cell-based, human; settings: HCT116 tumor cells; 2 and 24 hours; hydrochloride trihydrate
Procedure: as §1

[8] = test system: p21 protein in HUVEC cells; assay: p21 protein western blot, HUVEC; format: cell-based, human; settings: normal HUVEC cells; 24 hours
Procedure: as §1

[9] = test system: p21 protein in HCT116 cells; assay: p21 protein western blot, HCT116; format: cell-based, human
Procedure: as §1

[10] = test system: HCT116 cells; assay: Live/Dead viability/cytotoxicity fluorescence microscopy (calcein-AM, ethidium homodimer-1); format: cell-based, human
Procedure: as §2

[11] = test system: HCT116 colon cancer cells; assay: Crystal violet cell survival assay; format: cell-based, human; settings: SN-38 0.05 microgram/ml; FIG. 15
Procedure: A crystal violet assay was also used. […] The medium was removed the following day, and the cells were incubated for 24 or 48 hours in the fresh medium containing the various agents noted above. At the end of each treatment, the medium was removed and 100 μl of 0.5% crystal violet solution was added to each well and incubated at room temperature for 10 minutes before washing with water. After the wells were dry, 100 μl of ethanol containing 0.5 N HCL was added to each well. The plates were then read at 540 nm using a 96-well plate reader (Spectra Max 340pc, Molecular Devices Corporation, Sunnyvale, Calif.).

[12] = 24 hours of treatment, without Z-VAD

Q: Which results are given for `CC(NC(=O)C(NC(=O)OCc1ccccc1)C(C)C)C(=O)NC(CC(=O)O)C(=O)CF` (stereo not drawn) [Z-VAD] (Cbz-Val-Ala-Asp-CH2F; configuration not given here)?
A: effect of caspase inhibitor on Apo2L/TRAIL-mediated apoptosis ([1]; HCT116): effectively blocked Apo2L/TRAIL-mediated apoptosis; increase in DR5 mRNA in the presence of Z-VAD ([2]; 24 hours, with Z-VAD): did not block; increase in DR4 mRNA in the presence of Z-VAD ([3]; 24 hours, with Z-VAD): did not block

Q: What does the source list for `CCc1c2c(nc3ccc(OC(=O)N4CCC(N5CCCCC5)CC4)cc13)-c1cc3c(c(=O)n1C2)COC(=O)[C@]3(O)CC.Cl.O.O.O` [CPT-11, (4S)-4,11-diethyl-4-hydroxy-9-[(4-piperidino-piperidino)carbonyloxyl]-1H-pyrano[3′,4′:6,7]indolizino [1,2-b]quinoline-3,14(4H,12H)dione hydrochloride trihydrate]?
A: cells in Go-G1 (cell cycle arrest) ([1]; 6 hours, control 30%): 76%; Go-G1 phase ([1]; 24 hours): clear reduction in Go-G1 phase; cells in G2-M phase (arrest) ([1]; 24 hours, control 19%): 43%; apoptosis (sub-G1 DNA content) ([1]; 24 hours, control cells 1%): 9%; p53 protein level [4]: strong and sustained induction of p53 expression; also recorded: increase in p53 protein levels; effect on Apo2L/TRAIL-mediated apoptosis (number of live cells) [5]: enhanced Apo2L/TRAIL-mediated apoptosis in vitro; animals in which tumor growth resumed several days after the treatment period ([6]; 9 mice per group): 9 animals; effect on tumor growth ([6]; s.c. COLO205 tumors, Apo-2L 30 mg/kg/day days 0-4 and 7-11, CPT-11 80 mg/kg/day days 0, 4, 8, 34 days): suppressed tumor growth during the treatment period; increase in DR5 mRNA expression compared with controls ([2]; 2 hours of treatment): not at 2 hours; increase in DR5 mRNA compared with controls [2, 12]: 2.5 fold; induction of DR5 expression by CPT-11 in vitro ([2]; time of exposure, hydrochloride trihydrate): can be observed after two hours exposure or incubation; also recorded: induced in vitro following exposure of cells to 50 microgram/ml CPT-11 for 6 hours; increase in DR4 mRNA compared with controls ([3]; 2 hours of treatment): not at 2 hours; increase in DR4 mRNA compared with controls [3, 12]: 2.5 fold; p53 protein level [7]: strong and sustained induction of p53 expression; also recorded: increase in p53 protein levels; p21 protein level [8]: large induction of p21 protein; time profile of changes in p21 protein levels ([9]; CPT-11 incubation): increases as early as 4 hours of treatment; p21 protein level ([9]; HCT116 tumor cells, 24 hours): large induction of p21 protein; morphological changes / cell killing ([10]; 2 hours of treatment): did not show any morphological changes; cell death ([10]; 24 hours of treatment): a few dead cells were clearly present

Q: How did the “tumor cell death with SN38 instead of CPT-11 in combination and sequential treatments with Apo2L/TRAIL” value [11] turn out when `CCc1c2c(nc3ccc(O)cc13)-c1cc3c(c(=O)n1C2)COC(=O)[C@]3(O)CC` [SN38] was run?
A: Its value is “Increased tumor cell death”.

— US20110059104A1, “Apo-2L receptor agonist and CPT-11 synergism” (Genentech, Inc., priority 2000, published 2011)
